In paper PMC2831097, “Inhibition of L-Arginine Metabolizing Enzymes by L-Arginine-Derived Advanced Glycation End Products” (Journal of Clinical Biochemistry and Nutrition, 2010):
Where two headings read alike, the source gives them in different places.

Assays:
arginase = target: T1, arginase (Bos taurus, UniProt Q2KJ64); experiment: Arginase activity assay, conversion of L-[guanidine-14C]-arginine to [14C]-urea; assay type: biochemical, bovine; conditions: for IC50: 1 mM MnCl2, pH 9.6, 1 h at 37°C, means ± SD (n = 4); for inhibitory efficiency for arginase, fold weaker than NOHA: compared with NOHA (IC50 340 µM)
T1 construct: purchased Alexis Biochemicals (Lausen, Switzerland)
T1 sequence (Q2KJ64 1-322): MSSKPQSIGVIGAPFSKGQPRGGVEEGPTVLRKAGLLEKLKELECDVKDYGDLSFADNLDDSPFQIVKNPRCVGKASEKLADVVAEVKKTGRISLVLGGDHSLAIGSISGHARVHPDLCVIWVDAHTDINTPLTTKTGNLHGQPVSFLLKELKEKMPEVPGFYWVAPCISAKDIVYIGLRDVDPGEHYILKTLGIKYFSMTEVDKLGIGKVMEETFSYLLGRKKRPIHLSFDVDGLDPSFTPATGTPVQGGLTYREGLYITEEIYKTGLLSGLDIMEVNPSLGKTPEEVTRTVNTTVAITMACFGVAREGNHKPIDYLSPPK
From the text: (§1) L-Arginine, ADMA, N^G-hydroxy-L-arginine (NOHA), nicotinamide adenine dinucleotide phosphate reduced form (NADPH), flavin adenine dinucleotide (FAD), flavin mononucleotide (FMN), (6R)-5,6,7,8-tetrahydrobiopterin (BH4), recombinant eNOS (from bovine), iNOS (from mouse macrophage), Dowex® AG50W-X8 cation-exchange resin (mesh size, 100–200) were all purchased from Sigma Chemicals (St. Louis, MO). Ultima Gold XR scintillation liquid was from PerkinElmer (Shelton, CA). Recombinant nNOS (from rat) and N^G-hydroxy-nor-arginine (nor-NOHA) were obtained from Cayman Chemicals. Arginase (from bovine liver) was from Alexis Biochemicals (Lausen, Switzerland). L-NMMA was from Calbiochem, Darmstadt, Germany. All other chemicals were obtained from Wako Pure Chemical Industries, Osaka, Japan.
Assays for arginase activity were performed by monitoring the conversion of L-[guanidine-^14C]-arginine (Moravek, Brea, CA) to [^14C]-urea as previously described. Recombinant arginase (0.5 µg of protein, specific activity: 0.094 units/mg protein) (10 µl) was added to a mixture (final volume of 100 µl) containing 10 mM Tris-HCl buffer, pH 9.6, 1 mM MnCl2, and 0.16 µCi/ml of L-[guanidine-^14C]-arginine (specific activity: 1.85–2.22 GBq/mmol). After incubation for 1 h at 37°C, the reactions were terminated by addition of 0.4 ml of stop buffer containing 250 mM sodium acetate and 100 mM urea, pH 4.5. Samples were then passed through a 1 ml column of Dowex AG50W-8X (Na^+-form) to remove unmetabolized L-[guanidine-^14C]-arginine. [^14C]-Urea was eluted twice with 1 ml of distilled water, and the eluted fractions mixed with 10 ml of cocktail (Ultima Gold XR) were quantified using a liquid scintillation counter. A reaction mixture containing L-[guanidine-^14C]-arginine in the absence of enzyme was incubated as a control to determine background counts. The inhibitory effects of arginase were examined in the presence and absence of the test compounds at various concentrations.

recombinant eNOS = target: T2, recombinant eNOS (Bos taurus, UniProt P29473); experiment: NOS activity assay, conversion of L-[14C(U)]-arginine to L-[14C(U)]-citrulline, eNOS; assay type: biochemical, bovine; conditions: 50 µM L-arginine, 30 min at 37°C, pH 7.4; means ± SD (n = 4)
T2 construct: purchased Sigma Chemicals (St. Louis, MO)
From the text: as §1, with “L-NMMA was from Calbiochem, Darmstadt, Germany.” left out
(§2) The NOS activities were determined by monitoring the conversion of L-[^14C(U)]-arginine (Moravek, Brea, CA) to L-[^14C(U)]-citrulline as previously described. Recombinant enzymes of three isoforms of NOS (specific activity: eNOS 0.03, nNOS 2.9, iNOS 0.62 units/mg protein) (10 µl) were added to a reaction mixture (final volume of 100 µl) consisting of 50 mM HEPES buffer (pH 7.4), 1 mM NADPH, 4 µM FAD, 4 µM FMN, 10 µM BH4, 1 mg/L calmodulin, 2.5 mM CaCl2, 50 µM L-arginine and 0.5 µCi/ml of L-[^14C(U)]-arginine (specific activity: 8.14–11.1 GBq/mmol). After incubation for 30 min at 37°C, the reactions were terminated by addition of 0.5 ml of 20 mM HEPES (pH 5.5) containing 2 mM EDTA and 2 mM EGTA. Samples were passed through a 1 ml column of Dowex AG50W-X8 (Na^+-form) to remove unconverted L-[^14C(U)]-arginine. L-[^14C(U)]-Citrulline was eluted twice with 1 ml of distilled water, and the eluted fractions mixed with 10 ml of cocktail (Ultima Gold XR) were quantified using a liquid scintillation counter. A reaction mixture containing L-[^14C(U)]-arginine without the enzyme was incubated as a control to determine background counts.

[1] = target: T3, dimethylarginine dimethylaminohydrolase (DDAH) (Rattus norvegicus, UniProt O08557); experiment: DDAH activity assay, conversion of L-[3H]-NMMA to L-[3H]-citrulline by rat kidney homogenate; assay type: biochemical
T3 construct: from tissue; host or cells: rat kidney homogenate supernatant
Description: The DDAH activity was determined by monitoring the conversion of L-[4,5-^3H]-NMMA (American Radiolabeled Chemicals, Inc., St. Louis, MO) to L-[^3H]-citrulline as previously described. Rat kidney tissues (0.5 g) were homogenized in 1 ml of ice-cold 0.1 M sodium phosphate buffer (SPB, pH 6.5), and then centrifuged at 10,000 rpm for 5 min at 4°C. The supernatants were analyzed for protein content using a BCA protein reagent kit with bovine serum albumin as the standard. The supernatants were diluted with SPB to 1 mg protein in 50 µl, and then were added to a reaction mixture (a final volume of 100 µl) containing 0.1 M SPB (pH 6.5) and 0.1 µCi/ml of L-[^3H]-NMMA (specific activity: 1.48–2.96 TBq/mmol). After incubation for 1 h at 37°C, the reactions were terminated by keeping the tubes on ice for 5 min. Samples were then passed through a 1 ml column of Dowex AG50W-8X (Na^+-form) to remove unmetabolized L-[^3H]-NMMA. L-[^3H]-Citrulline was eluted twice with 1 ml of distilled water, and the eluted fractions mixed with 10 ml of cocktail (Ultima Gold XR) were quantified using a liquid scintillation counter. A reaction mixture containing L-[^3H]-NMMA in the absence of enzyme was added to the Dowex column to determine background counts. The effects of arginine derivatives on the enzyme activities in the presence and absence of the test compounds at various concentrations were examined.

recombinant nNOS = target: T4, recombinant nNOS (Rattus norvegicus, UniProt P29476); experiment: NOS activity assay, conversion of L-[14C(U)]-arginine to L-[14C(U)]-citrulline, nNOS; assay type: biochemical; conditions: 50 µM L-arginine, 30 min at 37°C, pH 7.4; means ± SD (n = 4)
T4 construct: purchased Cayman Chemicals
From the text: as §1, with “L-NMMA was from Calbiochem, Darmstadt, Germany.” left out
as §2

recombinant iNOS = target: T5, recombinant iNOS (Mus musculus, UniProt P29477); experiment: NOS activity assay, conversion of L-[14C(U)]-arginine to L-[14C(U)]-citrulline, iNOS; assay type: biochemical; conditions: 50 µM L-arginine, 30 min at 37°C, pH 7.4; means ± SD (n = 4)
T5 construct: purchased Sigma Chemicals (St. Louis, MO)
From the text: as §1, with “L-NMMA was from Calbiochem, Darmstadt, Germany.” left out
as §2

[2] = rat kidney extracts, SPB pH 6.5, 1 h at 37°C, means ± SD (n = 4), read-out: IC50 DDAH

T3 sequence (O08557 whole entry): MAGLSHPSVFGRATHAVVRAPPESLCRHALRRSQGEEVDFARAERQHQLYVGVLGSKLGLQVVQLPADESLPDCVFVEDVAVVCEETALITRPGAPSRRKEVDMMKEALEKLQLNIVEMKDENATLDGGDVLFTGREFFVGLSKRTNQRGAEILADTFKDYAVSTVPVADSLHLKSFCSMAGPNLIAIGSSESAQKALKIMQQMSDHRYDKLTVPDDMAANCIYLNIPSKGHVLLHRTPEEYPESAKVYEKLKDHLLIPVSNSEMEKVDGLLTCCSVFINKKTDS

SMILES | IC50 (arginase) | IC50 (recombinant eNOS) | IC50 [1] | IC50 (recombinant nNOS) | IC50 (recombinant iNOS) | IC50 [1, 2] | inhibitory efficiency for arginase, fold weaker than NOHA (arginase)
NC(=NCCCC(N)C(=O)O)NO [NOHA, N^G-hydroxy-L-arginine, reference compound] | 0.34 ± 0.012 mM | – | – | – | – | – | –
CC(NC(=N)NCCCC(N)C(=O)O)C(=O)O (stereo not shown) [CEA, N^ω-carboxyethyl-arginine] | > 5 mM | 3.87 ± 0.68 mM | > 5 mM | > 5 mM | > 5 mM | – | –
CN(C)C(=N)NCCCC(N)C(=O)O [ADMA, asymmetric N^G,N^G-dimethyl-L-arginine, reference compound] | – | 0.016 ± 0.009 mM | – | 0.023 mM | 0.024 ± 0.001 mM | – | –
N=C(NO)NCC[C@H](N)C(=O)O [Nor-NOHA, N^G-hydroxy-nor-arginine, reference compound] | 0.23 ± 0.026 mM | – | 1.77 ± 0.25 mM | – | – | – | –
CC1NC(NCCCC(N)C(=O)O)=NC1=O (stereo not shown) [MG-H1, N^δ-(5-hydro-5-methyl-4-imidazolon-2-yl)-ornithine] | > 5 mM | 1.28 ± 0.075 mM | – | 4.17 ± 0.38 mM | 2.97 ± 0.56 mM | > 5 mM | –
N=C(NCCCC(N)C(=O)O)NCC(=O)O (stereo not shown) [CMA, N^ω-Carboxymethyl-arginine] | 1.47 ± 0.12 mM | 0.83 ± 0.036 mM | > 5 mM | > 5 mM | 1.16 ± 0.04 mM | – | approximately 3 fold
NC(CCCCNCC(=O)O)C(=O)O (stereo not shown) [CML, carboxymethyl-lysine] | 1.06 ± 0.06 mM | > 5 mM | – | 1.93 ± 0.3 mM | > 5 mM | > 5 mM | approximately 3 fold
